According to patent US20050014849A1, “Antifungal phenylethylene” (priority 2001, published 2005):
Where two headings read alike, the source gives them in different places.

What was measured:
C. neoformans ATCC 90112 = test: Broth macrodilution MIC/MFC; type: cell-based, Cryptococcus neoformans; settings: for MFC / MIC: Cryptococcus neoformans
Protocol: (§1) TMPN was screened against yeasts by the broth macrodilution assay according to the NCCLS [7]. Yeasts were suspended and diluted as recommended to yield final inocula ranging from 0.5-2.5×10^3 cfu/ml. Tests were performed in sterile 12 by 75 mm plastic tubes containing two-fold dilutions of TMPN in 0.165 M morpholinepropanesulfonic acid buffered RPMI 1640 medium (pH 7.0). One tube was again left drug free (but contained an equivalent volume of DMSO) for a turbidity control. Tubes were incubated without agitation at the appropriate temperature (see Fungal Strains section above). MICs were determined after 72 h for Cryptococcus and after 48 h for other yeast genera. The MIC was defined as the lowest concentration of TMPN that inhibited all visible growth of the test organism (optically clear).
(§2) Minimum fungicidal concentrations (MFCs) were determined by subculturing 0.1 ml from each tube with no visible growth in the MIC broth macrodilution series onto the appropriate drug-free plates (see Fungal Strains section above).
(§3) Possible host effects were also evaluated. Broth macrodilution assays were performed with RPMI medium prepared at pH 5, pH 6, and pH 7, and in RPMI medium with and without 50% normal human serum (Lampire Biological Labs). The pH experiments were performed twice on separate days.

C. albicans ATCC 10231 = test: Broth macrodilution MIC/MFC; type: cell-based, Candida albicans
Protocol: as §1, §2

C. albicans ATCC 14053 = test: Broth macrodilution MIC/MFC; type: cell-based, Candida albicans
Protocol: as §1, §2

C. albicans ATCC 60193 = test: Broth macrodilution MIC/MFC; type: cell-based, Candida albicans
Protocol: as §1, §2

[1] = tested on: Flucytosine-resistant C. albicans ATCC 32354; test: Broth macrodilution MIC/MFC; type: cell-based, Candida albicans
Protocol: as §1, §2

[2] = tested on: Ketoconazole-resistant C. albicans ATCC 64124; test: Broth macrodilution MIC/MFC; type: cell-based, Candida albicans
Protocol: as §1, §2

C. albicans ATCC 90028 = test: Broth macrodilution MIC/MFC; type: cell-based, Candida albicans; settings: for MFC: Candida albicans ATCC 90028; for MIC: Candida albicans
Protocol: as §1, §2, §3

N. gonorrhoeae = test: NCCLS broth macrodilution assay, antibacterial; type: cell-based; settings: Neisseria gonorrhoeae
Protocol: (§4) The antibacterial activity of TMPN was also assessed by the NCCLS broth macrodilution assay. Isolated colonies from overnight cultures were suspended and diluted as recommended to yield final inocula of approximately 5×10^5 cfu/ml. Tests were performed in sterile plastic tubes (12 by 75 mm) containing twofold dilutions of TMPN in gonococcal typing broth (Neisseria), Mueller Hinton II (MHII) (cation adjusted) broth containing 3% lysed horse blood (Streptococcus) or MHII broth (all other bacteria). One tube was left drug-free (but contained an equivalent volume of DMSO) for a turbidity control. Tubes were incubated without agitation at 37° C. with 5% CO2 (Streptococcus, Neisseria), or at 35° C. (remaining bacteria). MICs were determined after 24 h for all bacteria except Micrococcus, which was read at 48 h. The MIC was defined as the lowest concentration of drug that inhibited all visible growth of the test organism (optically clear).

all bacteria = test: NCCLS broth macrodilution assay, antibacterial; type: cell-based; settings: Neisseria gonorrhoeae; all bacteria (single exception N. gonorrhoeae)
Protocol: as §4

C. albicans (ATCC 90028) = test: Frequency of occurrence of spontaneous mutants; type: cell-based, Candida albicans; settings: four times the broth macrodilution MIC
Protocol: Determination of the frequency of occurrence of spontaneous mutants was performed as previously described. Overnight cultures of C neoformans (ATCC 90112), C. albicans (ATCC 90028) and Trichosporon inkin (ATCC 18020) were diluted to an OD530 nm=0.3. 0.1 ml of each preparation was spread onto SDA plates containing four or eight times the broth macrodilution MIC of TMPN. The starting inoculum for each organism was also diluted and plated onto drug-free SDA plates for determination of cfu/ml. After a 48 h incubation at the appropriate temperature (see Fungal Strains section above), the number of colonies on drug-supplemented SDA was counted. The frequency of occurrence of spontaneous mutants was calculated by dividing the number of colonies on drug-containing plates by the number of colonies in the inoculum. When no colonies were visualized on drug-containing plates, the calculation was (<) 1 colony divided by the number of colonies in the inoculum.

P388 leukemia = test: Sulforhodamine B cancer cell growth inhibition; type: cell-based, murine; settings: Mus musculus, 48 h, read-out: GI50 (inhibition of 50% of cell growth)
Protocol: An investigation TMPN's in vitro antineoplastic activity was also conducted. This investigation included an analysis of both cell growth, and of the effects of TMPN upon tubulin. Inhibition of cancer cell growth was assessed using the Sulforhodamine B assay as previously described. Briefly, cells in 5% fetal calf serum/RPMI-1640 were inoculated into 96 well plates, incubated 24 h and 10-fold dilutions of TMPN added. After a 48 h incubation, plates were fixed with trichloroacetic acid, washed, stained with Sulforhodamine B and read with an automated microtiter plate reader.

[3] = ATCC90112, Cryptococcus neoformans ATCC 90112, 20 μg/ml bovine serum albumin
[4] = ATCC90112, Cryptococcus neoformans ATCC 90112, 40 μg/ml bovine serum albumin
[5] = ATCC90112, Cryptococcus neoformans ATCC 90112, no bovine serum albumin
[6] = ATCC90112, Cryptococcus neoformans ATCC 90112, no serum
[7] = ATCC90112, pH 5, Cryptococcus neoformans ATCC 90112, pH 5
[8] = ATCC90112, pH 5, Cryptococcus neoformans ATCC 90112, pH 5, repeat experiment
[9] = ATCC90112, pH 6, Cryptococcus neoformans ATCC 90112, pH 6
[10] = ATCC90112, pH 6, Cryptococcus neoformans ATCC 90112, pH 6, repeat experiment
[11] = ATCC90112, pH 7, Cryptococcus neoformans ATCC 90112, pH 7
[12] = ATCC90112, pH 7, Cryptococcus neoformans ATCC 90112, pH 7, repeat experiment

COc1cc(C=C[N+](=O)[O-])cc(OC)c1OC [TMPN, 1-(3′,4′,5′-trimethoxyphenyl)-2-nitro-ethylene]
> 64 µg/mL: MIC (C. neoformans ATCC 90112; ATCC90112, Cryptococcus neoformans ATCC 90112, 50% human serum) | MIC (C. albicans ATCC 90028; ATCC90028, Candida albicans ATCC 90028, 50% human serum) | MIC (all bacteria)
4.15 µg/mL: GI50 (P388 leukemia)
2 µg/mL: MIC Range (C. neoformans ATCC 90112; C. neoformans ATCC 90112) | MIC (C. neoformans ATCC 90112; [5]) | MIC (C. neoformans ATCC 90112; [6]) | MIC (C. neoformans ATCC 90112; [7]) | MFC (C. neoformans ATCC 90112; [8]) | MIC (C. neoformans ATCC 90112; [11]) | MIC (C. neoformans ATCC 90112; [12])
8 µg/mL: MFC Range (C. albicans ATCC 10231) | MIC Range (C. albicans ATCC 10231)
32 (32) μg/ml: MFC (C. albicans ATCC 90028; 20 μg/ml bovine serum albumin) | MFC (C. albicans ATCC 90028; no bovine serum albumin)
1 µg/mL: MIC (C. neoformans ATCC 90112; [8])
≤ 10^−6: frequency of occurrence of single-step resistant mutants (C. albicans (ATCC 90028))
16 µg/mL: MFC Range (C. albicans ATCC 14053) | MIC Range (C. albicans ATCC 14053) | MFC Range (C. albicans ATCC 60193) | MIC Range (C. albicans ATCC 60193) | MFC Range [1] | MIC Range [1] | MIC Range [2] | MIC (C. albicans ATCC 90028; ATCC90028, Candida albicans ATCC 90028, 40 μg/ml bovine serum albumin)
32 µg/mL: MFC Range [2] | MFC (C. albicans ATCC 90028; ATCC90028, no serum, read-out: MFC) | MFC (C. albicans ATCC 90028; ATCC90028, pH 5, read-out: MFC) | MFC (C. albicans ATCC 90028; ATCC90028, pH 6, read-out: MFC) | MFC (C. albicans ATCC 90028; ATCC90028, pH 7, read-out: MFC) | MFC Range (C. albicans ATCC 90028; C. albicans ATCC 90028) | MIC Range (C. albicans ATCC 90028; C. albicans ATCC 90028) | MFC (C. albicans ATCC 90028; 40 μg/ml bovine serum albumin) | MIC (C. albicans ATCC 90028; ATCC90028, Candida albicans ATCC 90028, 20 μg/ml bovine serum albumin) | MIC (C. albicans ATCC 90028; ATCC90028, Candida albicans ATCC 90028, no bovine serum albumin) | MIC (C. albicans ATCC 90028; ATCC90028, Candida albicans ATCC 90028, no serum) | MIC (C. albicans ATCC 90028; ATCC90028, pH 5, Candida albicans ATCC 90028, pH 5) | MIC (C. albicans ATCC 90028; ATCC90028, pH 5, Candida albicans ATCC 90028, pH 5, repeat experiment) | MIC (C. albicans ATCC 90028; ATCC90028, pH 6, Candida albicans ATCC 90028, pH 6) | MIC (C. albicans ATCC 90028; ATCC90028, pH 6, Candida albicans ATCC 90028, pH 6, repeat experiment) | MIC (C. albicans ATCC 90028; ATCC90028, pH 7, Candida albicans ATCC 90028, pH 7) | MIC (C. albicans ATCC 90028; ATCC90028, pH 7, Candida albicans ATCC 90028, pH 7, repeat experiment)
4 µg/mL: MFC Range (C. neoformans ATCC 90112; C. neoformans ATCC 90112) | MFC (C. neoformans ATCC 90112; [3]) | MIC (C. neoformans ATCC 90112; [3]) | MFC (C. neoformans ATCC 90112; [4]) | MIC (C. neoformans ATCC 90112; [4]) | MFC (C. neoformans ATCC 90112; [5]) | MFC (C. neoformans ATCC 90112; [6]) | MFC (C. neoformans ATCC 90112; [7]) | MFC (C. neoformans ATCC 90112; [9]) | MIC (C. neoformans ATCC 90112; [9]) | MFC (C. neoformans ATCC 90112; [10]) | MIC (C. neoformans ATCC 90112; [10]) | MFC (C. neoformans ATCC 90112; [11]) | MFC (C. neoformans ATCC 90112; [12]) | MIC (N. gonorrhoeae)
32 (32), 32 (32) μg/ml: MFC (C. albicans ATCC 90028; pH 5, repeat experiment) | MFC (C. albicans ATCC 90028; pH 6, repeat experiment) | MFC (C. albicans ATCC 90028; pH 7, repeat experiment)
